The source made the active and inactive calls. The rule behind the calls is not given here.
Columns and labels:
[1] = biological target: Proteinase-activated receptor 2 (Homo sapiens) (UniProt P55085); assay: Agonist activity at PAR2 in human HT-29 cells assessed as induction of ca2+ release at 10 uM after 1 hr by FLIPR assay relative to 2f-LIGRLO-NH2; format: cell-based
[2] = biological target: Proteinase-activated receptor 2 (Homo sapiens) (UniProt P55085); assay: Antagonist activity at PAR2 in human HT-29 cells assessed as inhibition of 2f-LIGRLO-NH2-induced ca2+ release at 1 uM preincubated for 15 mins measured after 1 hr by FLIPR assay; format: cell-based
Rattus norvegicus [3] = assay: Antiinflammatory activity in Wistar rat assessed as inhibition of 2f-LIGRLO-NH2-induced paw edema at 5 mg/kg, sc dosed 120 mins before 2f-LIGRLO-NH2 stimulation; format: functional, organism-based
[4] = Tmax in Wistar rat at 10 mg/kg, po; format: ADME, organism-based; conditions: in vivo
[5] = AUC (0 to 6 hrs) in Wistar rat at 10 mg/kg, po; format: ADME, organism-based; design: time < 6 hr, dose 10 mg/kg, route oral; conditions: in vivo
HTEC [6] = assay: Antiinflammatory activity in human HTEC cells assessed as inhibition of 2f-LIGRLO-NH2-induced TNFalpha production at 5 to 10 uM after 24 hrs by ELISA; format: functional, cell-based
[7] = biological target: T1, Proteinase-activated receptor 2 (Homo sapiens, UniProt P55085); assay: Antagonist activity at PAR2 in human HT-29 cells assessed as inhibition of trypsin-induced ca2+ release preincubated for 15 mins measured after 1 hr by FLIPR assay; format: cell-based
T1 sequence (P55085 whole entry): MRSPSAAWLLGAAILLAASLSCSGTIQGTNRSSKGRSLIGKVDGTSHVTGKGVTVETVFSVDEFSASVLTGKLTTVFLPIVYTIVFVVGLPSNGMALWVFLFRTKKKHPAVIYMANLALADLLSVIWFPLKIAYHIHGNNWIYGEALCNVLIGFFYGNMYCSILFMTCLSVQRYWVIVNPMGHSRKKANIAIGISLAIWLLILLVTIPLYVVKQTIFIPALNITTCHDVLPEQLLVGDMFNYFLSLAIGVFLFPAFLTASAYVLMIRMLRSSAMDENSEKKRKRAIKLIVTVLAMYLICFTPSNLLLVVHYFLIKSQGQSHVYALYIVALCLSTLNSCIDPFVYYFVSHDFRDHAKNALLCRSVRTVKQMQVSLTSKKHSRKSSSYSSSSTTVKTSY

[8] = Cmax in Wistar rat at 10 mg/kg, po; format: ADME, organism-based; design: dose 10 mg/kg, route oral; conditions: in vivo
[9] = biological target: T1, Proteinase-activated receptor 2; assay: Antagonist activity at PAR2 in human HT-29 cells assessed as inhibition of 2f-LIGRLO-NH2-induced ca2+ release preincubated for 15 mins measured after 1 hr by FLIPR assay; format: cell-based
[10] = biological target: T2, Proteinase-activated receptor 1 (Homo sapiens) (UniProt P25116); assay: Antagonist activity at PAR1 in human PC3 cells assessed as inhibition of TFLLR-induced ca2+ release at 100 uM preincubated for 15 mins measured after 1 hr by FLIPR assay; format: cell-based; conditions: PC-3
T2 sequence (whole entry): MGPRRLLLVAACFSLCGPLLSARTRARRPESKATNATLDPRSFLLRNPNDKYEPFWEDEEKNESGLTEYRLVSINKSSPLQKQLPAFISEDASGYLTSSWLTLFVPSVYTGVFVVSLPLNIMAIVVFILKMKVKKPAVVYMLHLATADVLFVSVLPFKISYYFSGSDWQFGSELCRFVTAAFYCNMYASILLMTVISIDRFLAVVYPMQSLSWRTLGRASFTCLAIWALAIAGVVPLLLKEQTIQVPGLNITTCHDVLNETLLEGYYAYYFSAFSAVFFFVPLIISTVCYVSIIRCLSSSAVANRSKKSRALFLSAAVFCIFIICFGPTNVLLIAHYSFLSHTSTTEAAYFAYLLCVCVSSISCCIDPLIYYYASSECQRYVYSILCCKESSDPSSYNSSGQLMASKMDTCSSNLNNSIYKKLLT

HTEC [11] = assay: Antiinflammatory activity in human HTEC cells assessed as inhibition of 2f-LIGRLO-NH2-induced IL-6 production at 5 to 10 uM after 24 hrs by ELISA; format: functional, cell-based
[12] = biological target: T2, Proteinase-activated receptor 1 (Homo sapiens); assay: Antagonist activity at PAR1 in human PC3 cells assessed as inhibition of alpha-thrombin-induced ca2+ release at 100 uM preincubated for 15 mins measured after 1 hr by FLIPR assay; format: cell-based; conditions: PC-3
[13] = biological target: T1, Proteinase-activated receptor 2; assay: Displacement of europium-labeled 2f-LIGRLO-NH2 from human PAR2 expressed in CHO cells after 1 to 2 hrs; format: cell-based
Rattus norvegicus [14] = assay: Antiinflammatory activity in Wistar rat assessed as inhibition of 2f-LIGRLO-NH2-induced paw edema at 10 mg/kg, po dosed 120 mins before 2f-LIGRLO-NH2 stimulation; format: functional, organism-based

Activity [1] [%]	inhibition [2] [%]	SMILES	other results
39	32	CC[C@H](C)[C@H](NC(=O)[C@H](CC1CCCCC1)NC(=O)c1ccno1)C(=O)NCCc1ccc(OC)c(OC)c1	–
5	17	CC[C@H](C)[C@H](NC(=O)[C@H](CC1CCCCC1)NC(=O)c1ccno1)C(=O)NCc1cccc(-c2ccccc2)c1	–
43	85	CC[C@H](C)[C@H](NC(=O)[C@H](CC1CCCCC1)NC(=O)c1ccno1)C(=O)NCc1ccccc1Cl	–
6	0	CC[C@H](C)[C@H](NC(=O)[C@H](CC1CCCCC1)NC(=O)c1ccno1)C(=O)NCc1ccc(-c2ccccc2)cc1	–
29	74	CC[C@H](C)[C@H](NC(=O)[C@H](CC1CCCCC1)NC(=O)c1ccno1)C(=O)NCc1ccccc1C	–
1	0	CC[C@H](C)[C@H](NC(=O)[C@H](CC1CCCCC1)NC(=O)c1ccno1)C(=O)NCc1ccccc1-c1ccccc1	–
46	90	CC[C@H](C)[C@H](NC(=O)[C@H](CC1CCCCC1)NC(=O)c1ccno1)C(=O)NCc1cccc2c1OCO2	–
87	–	CC[C@H](C)[C@H](NC(=O)[C@H](CC1CCCCC1)NC(=O)c1ccno1)C(=O)NCc1ccncc1	–
20	27	CC[C@H](C)[C@H](NC(=O)[C@H](CC1CCCCC1)NC(=O)c1ccno1)C(=O)N(C)Cc1ccccc1OC	–
51	95	CC[C@H](C)[C@H](NC(=O)[C@H](CC1CCCCC1)NC(=O)c1ccno1)C(=O)NCc1ccc(OC)cc1	–
29	71	CCOc1ccccc1CNC(=O)[C@@H](NC(=O)[C@H](CC1CCCCC1)NC(=O)c1ccno1)[C@@H](C)CC	–
86	–	CC[C@H](C)[C@H](NC(=O)[C@H](CC1CCCCC1)NC(=O)c1ccno1)C(=O)NCc1nc2ccccc2[nH]1	–
1	0	CC[C@H](C)[C@H](NC(=O)[C@H](CC1CCCCC1)NC(=O)c1ccno1)C(=O)N(CC(C)C)CC(C)C	–
45	94	CC[C@H](C)[C@H](NC(=O)[C@H](CC1CCCCC1)NC(=O)c1ccno1)C(=O)NCc1ccccc1[N+](=O)[O-]	–
20	100	CC[C@H](C)[C@H](NC(=O)[C@H](CC1CCCCC1)NC(=O)c1ccno1)C(=O)NCc1ccccc1OC	inhibition (Rattus norvegicus [3]): Active; Tmax [4]: 2.63 h; AUC(0-t) at 6 h [5]: 444 ng·h/mL; inhibition (HTEC [6]): Active; IC50 ([7]; read-out: pIC50 (converted)): 2000 nM; Cmax [8]: 510 nM; IC50 ([9]; read-out: IC50): 500 nM; inhibition [10]: inactive; inhibition (HTEC [11]): Active; inhibition [12]: inactive; IC50 [13]: 4500 nM; inhibition (Rattus norvegicus [14]): inactive
41	33	CC[C@H](C)[C@H](NC(=O)[C@H](CC1CCCCC1)NC(=O)c1ccno1)C(=O)NNc1ccccc1	–
2	12	CC[C@H](C)[C@H](NC(=O)[C@H](CC1CCCCC1)NC(=O)c1ccno1)C(=O)NCc1cccc2ccccc12	–

Activity [1] [%]	inhibition [2] [%]	SMILES	other results
26	29	CC[C@H](C)[C@H](NC(=O)[C@H](CC1CCCCC1)NC(=O)c1ccno1)C(=O)NC1C2CC3CC(C2)CC1C3 (stereo partly specified)	–
44	18	CC[C@H](C)[C@H](NC(=O)[C@H](CC1CCCCC1)NC(=O)c1ccno1)C(=O)NCc1cccc(OC(F)(F)F)c1	–
38	67	CC[C@H](C)[C@H](NC(=O)[C@H](CC1CCCCC1)NC(=O)c1ccno1)C(=O)NCc1ccccc1OC(C)C	–
1	34	CCCOc1ccccc1CNC(=O)[C@@H](NC(=O)[C@H](CC1CCCCC1)NC(=O)c1ccno1)[C@@H](C)CC	–
6	53	CCC(C)Oc1ccccc1CNC(=O)[C@@H](NC(=O)[C@H](CC1CCCCC1)NC(=O)c1ccno1)[C@@H](C)CC (stereo partly specified)	IC50 ([9]; read-out: IC50): 1000 nM; IC50 ([9]; read-out: pIC50 (converted)): 1260 nM
40	93	CC[C@H](C)[C@H](NC(=O)[C@H](CC1CCCCC1)NC(=O)c1ccno1)C(=O)NCc1ccccc1F	–
23	76	CC[C@H](C)[C@H](NC(=O)[C@H](CC1CCCCC1)NC(=O)c1ccno1)C(=O)NCc1ccccc1	–
28	74	CC[C@H](C)[C@H](NC(=O)[C@H](CC1CCCCC1)NC(=O)c1ccno1)C(=O)NCc1cccc(F)c1	–
16	54	CC[C@H](C)[C@H](NC(=O)[C@H](CC1CCCCC1)NC(=O)c1ccno1)C(=O)N1CCC2(C=Cc3ccccc32)CC1	inhibition (Rattus norvegicus [3]): Active; Tmax [4]: 2.78 h; AUC(0-t) at 6 h [5]: 3420 ng·h/mL; IC50 ([7]; read-out: IC50): 9600 nM; Cmax [8]: 1970 nM; IC50 ([9]; read-out: pIC50 (converted)): 1260 nM; inhibition [10]: inactive; inhibition [12]: inactive; inhibition (Rattus norvegicus [14]): Active
7	7	CC[C@H](C)[C@H](NC(=O)[C@H](CC1CCCCC1)NC(=O)c1ccno1)C(=O)N(C)Cc1ccccc1	–
83	–	CC[C@H](C)[C@H](NC(=O)[C@H](CC1CCCCC1)NC(=O)c1ccno1)C(=O)NCc1ccccn1	–
33	84	CC[C@H](C)[C@H](NC(=O)[C@H](CC1CCCCC1)NC(=O)c1ccno1)C(=O)NCc1ccc2c(c1)OCO2	–
28	82	CC[C@H](C)[C@H](NC(=O)[C@H](CC1CCCCC1)NC(=O)c1ccno1)C(=O)NCc1ccc(F)cc1	–
32	98	CC[C@H](C)[C@H](NC(=O)[C@H](CC1CCCCC1)NC(=O)c1ccno1)C(=O)NCc1cccc(OC)c1	–
42	57	CC[C@H](C)[C@H](NC(=O)[C@H](CC1CCCCC1)NC(=O)c1ccno1)C(=O)NCc1ccccc1C(F)(F)F	–
1	8	CCCCOc1ccccc1CNC(=O)[C@@H](NC(=O)[C@H](CC1CCCCC1)NC(=O)c1ccno1)[C@@H](C)CC	–

Source: ChEMBL document CHEMBL3751717, “Benzylamide antagonists of protease activated receptor 2 with anti-inflammatory activity” (Bioorg Med Chem Lett, 2016)
